In US9382222B2, “Benzyl sulfonamide derivatives as RORc modulators” (Genentech, Inc., priority 2012, dated 2016):

Each compound was assayed against T1, RORc ligand binding domain (Homo sapiens, UniProt P51449) (assay: In Vitro RORc Ligand Binding Assay). Details: displacement of 25-[3H]hydroxycholesterol (6 nM), 0.6 ug/mL RORc receptor, 3 h at 25° C.
T1 construct: host or cells: E. coli
T1 sequence (P51449 269-508 limits assumed): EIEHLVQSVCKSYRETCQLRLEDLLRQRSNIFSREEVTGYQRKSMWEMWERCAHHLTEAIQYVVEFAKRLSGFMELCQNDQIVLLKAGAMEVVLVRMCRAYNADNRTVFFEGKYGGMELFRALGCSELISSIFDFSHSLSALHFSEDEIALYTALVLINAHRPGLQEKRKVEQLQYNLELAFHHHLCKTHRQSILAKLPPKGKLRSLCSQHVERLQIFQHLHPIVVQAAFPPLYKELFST
Experimental: In Vitro RORc Ligand Binding Assay This assay was used to determine a compound's potency in inhibiting activity of RORc by determining, Kiapp, IC50, or percent inhibition values. […] On day of the assay, 100 uL of 0.05% CHAPS (in deionized H2O) was added to all wells of the GFB Unifilter plate and allowed soak for 1 h. A wash buffer of 50 mM HEPES (pH 7.4), 150 mM NaCl, and 5 mM MgCl2 was prepared to wash the filter plate. To prepare an assay buffer, BSA was added to the wash buffer to reach 0.01% and DTT was added to reach 1 mM. […] The 20× compound stocks were diluted in DMSO with Assay Buffer 4-fold to reach 5× the final test concentration in 25% DMSO (10 uL compound+30 uL Assay Buffer). Solutions were mixed by aspiration several times with a pipette set on 50 uL volume. For the assay, 10 uL of 5× compound stock solutions in 25% DMSO were added to the assay plate in duplicate. For two point screening, 10 mM stock compound solutions were diluted in DMSO to obtain 200 uM (20× the high test concentration) and then diluted 10-fold further to reach 20 uM (20× the low test concentration). The 20× stocks were diluted 4-fold with Assay Buffer (10 uL compound+30 uL Assay Buffer) to reach 5× the test concentrations (50 uM and 5 uM) and 10 uL were added to two assay plates for the duplicate wells. […] Add 20 uL to all wells to reach 6 nM final concentration in the assay. […] Stock receptor solution was diluted in assay buffer to obtain 1.5 ug/mL in Assay Buffer. 20 uL was added to all wells. For No Receptor samples, 20 uL Assay Buffer was substituted for receptor solution. […] Following addition to the wells, the plates were incubated 3 h at 25° C. Using a Packard Filtermate Harvester, the filter plate were washed 4 times following transfer of the incubated samples. Plates were dry-filtered completely (2 h at 50° C. or overnight at room temperature). 50 uL Microscint 0 was added to all wells and read on Topcount protocol Inverted. […] For NSB wells, 1 uM 25-hydroxycholesterol was also present.

In order of rising IC50:
1. CC(C)CN(Cc1ccccc1C(F)(F)F)S(=O)(=O)c1ccc(NC2CCN(S(C)(=O)=O)CC2)cc1 [Compound 84, N-Isobutyl-4-(1-methanesulfonyl-piperidin-4-ylamino)-N-(2-trifluoromethyl-benzyl)-benzenesulfonamide]  6 nM
2. CC(C)CN(c1cccc(Cl)c1)S(=O)(=O)c1ccc(OC2CCN(S(C)(=O)=O)CC2)cc1 [Compound 34, N-(3-Chloro-phenyl)-N-isobutyl-4-(1-methanesulfonyl-piperidin-4-yloxy)-benzenesulfonamide]  8 nM
3. CC(C)CN(Cc1ccccc1C(F)(F)F)S(=O)(=O)c1ccc(N2CCN(S(C)(=O)=O)CC2)c(F)c1 [Compound 75, 3-Fluoro-N-isobutyl-4-(4-methanesulfonyl-piperazin-1-yl)-N-(2-trifluoromethyl-benzyl)-benzenesulfonamide]  8 nM
4. CC(C)CN(Cc1ccc(F)cc1)S(=O)(=O)c1ccc(NC2CCN(S(C)(=O)=O)CC2)cc1 [Compound 2, N-(4-Fluoro-benzyl)-N-isobutyl-4-(1-methanesulfonyl-piperidin-4-ylamino)-benzenesulfonamide]  8 nM
5. CS(=O)(=O)N1CCC(Oc2ccc(S(=O)(=O)N(Cc3ccccc3C(F)(F)F)C3CCC3)cc2)CC1 [Compound 89, N-Cyclobutyl-4-(1-methanesulfonyl-piperidin-4-yloxy)-N-(2-trifluoromethyl-benzyl)-benzenesulfonamide]  9 nM
6. CC(C)CN(Cc1ccccc1C(F)(F)F)S(=O)(=O)c1ccc(N2CCN(S(C)(=O)=O)CC2)cc1F [Compound 69, 2-Fluoro-N-isobutyl-4-(4-methanesulfonyl-piperazin-1-yl)-N-(2-trifluoromethyl-benzyl)-benzenesulfonamide]  20 nM
7. C=C(c1ccccc1)N(CC(C)C)S(=O)(=O)c1ccc(N2CCN(S(C)(=O)=O)CC2)cc1 [Compound 78, N-Isobutyl-4-(4-methanesulfonyl-piperazin-1-yl)-N-(1-phenyl-vinyl)-benzenesulfonamide]  23 nM
8. CC(C)CN(Cc1ccccc1C(F)(F)F)S(=O)(=O)c1ccc(N2CCN(S(=O)(=O)N(C)C)CC2)cc1 [Compound 73, 4-{4-[Isobutyl-(2-trifluoromethyl-benzyl)-sulfamoyl]-phenyl}-piperazine-1-sulfonic acid dimethylamide]  23 nM
9. CN(C)S(=O)(=O)N1CCN(c2ccc(S(=O)(=O)N(Cc3ccccc3C(F)(F)F)C3CCC3)cc2)CC1 [Compound 77, 4-{4-[Cyclobutyl-(2-trifluoromethyl-benzyl)-sulfamoyl]-phenyl}-piperazine-1-sulfonic acid dimethylamide]  25 nM
10. CC(=O)N1CCN(c2ccc(S(=O)(=O)N(Cc3ccccc3C(F)(F)F)C3CCC3)cc2)CC1 [Compound 76, 4-(4-Acetyl-piperazin-1-yl)-N-cyclobutyl-N-(2-trifluoromethyl-benzyl)-benzenesulfonamide]  31 nM
11. CN(C)S(=O)(=O)N1CCN(c2ccc(S(=O)(=O)N(Cc3ccccc3C(F)(F)F)CC(F)(F)F)cc2)CC1 [Compound 79, 4-{4-[(2,2,2-Trifluoro-ethyl)-(2-trifluoromethyl-benzyl)-sulfamoyl]-phenyl}-piperazine-1-sulfonic acid dimethylamide]  55 nM
12. CC(=O)N1CCN(c2ccc(S(=O)(=O)N(Cc3ccccc3C(F)(F)F)CC(F)(F)F)cc2)CC1 [Compound 80, 4-(4-Acetyl-piperazin-1-yl)-N-(2,2,2-trifluoro-ethyl)-N-(2-trifluoromethyl-benzyl)-benzenesulfonamide]  87 nM
13. CC(C)CN(c1ccccc1Cl)S(=O)(=O)c1ccc(N2CCN(S(C)(=O)=O)CC2)cc1 [Compound 22, N-(2-Chloro-phenyl)-N-isobutyl-4-(4-methanesulfonyl-piperazin-1-yl)-benzenesulfonamide]  87 nM
14. CC(=O)N1CCN(c2ccc(S(=O)(=O)N(CC(C)C)c3ccccc3Cl)cc2)CC1 [Compound 21, 4-(4-Acetyl-piperazin-1-yl)-N-(2-chloro-phenyl)-N-isobutyl-benzenesulfonamide]  99 nM
15. CC(C)CN(Cc1ccc(OC(F)(F)F)cc1)S(=O)(=O)c1ccc(N2CCN(S(C)(=O)=O)CC2)cc1 [Compound 64, N-Isobutyl-4-(4-methanesulfonyl-piperazin-1-yl)-N-(4-trifluoromethoxy-benzyl)-benzenesulfonamide]  102 nM
16. CC(C)CN(c1cccc(Cl)c1)S(=O)(=O)c1ccc(N2CCN(S(C)(=O)=O)CC2)cc1 [Compound 18, N-(3-Chloro-phenyl)-N-isobutyl-4-(4-methanesulfonyl-piperazin-1-yl)-benzenesulfonamide]  126 nM
17. CC(=O)N1CCN(c2ccc(S(=O)(=O)N(CC(C)C)c3cccc(Cl)c3)cc2)CC1 [Compound 17, 4-(4-Acetyl-piperazin-1-yl)-N-(3-chloro-phenyl)-N-isobutyl-benzenesulfonamide]  138 nM
18. CC(C)CN(c1cccc(Cl)c1)S(=O)(=O)c1ccc(O[C@@H]2CCCN(S(C)(=O)=O)C2)cc1 [Compound 42, N-(3-Chloro-phenyl)-N-isobutyl-4-((R)-1-methanesulfonyl-piperidin-3-yloxy)-benzenesulfonamide]  164 nM
19. CC(=O)N1CCC(Oc2ccc(S(=O)(=O)N(CC(C)C)c3cccc(Cl)c3)cc2)CC1 [Compound 33, 4-(1-Acetyl-piperidin-4-yloxy)-N-(3-chloro-phenyl)-N-isobutyl-benzenesulfonamide]  198 nM
20. CC(C)CN(c1cccc(Cl)c1)S(=O)(=O)c1ccc(N[C@H]2CCCN(S(C)(=O)=O)C2)cc1 [Compound 45, N-(3-Chloro-phenyl)-N-isobutyl-4-((S)-1-methanesulfonyl-piperidin-3-ylamino)-benzenesulfonamide]  271 nM
21. CC(C)CN(c1cccc(Cl)c1)S(=O)(=O)c1ccc(O[C@H]2CCCN(S(C)(=O)=O)C2)cc1 [Compound 43, N-(3-Chloro-phenyl)-N-isobutyl-4-((S)-1-methanesulfonyl-piperidin-3-yloxy)-benzenesulfonamide]  281 nM
22. CC(C)CN(c1ccc(F)cc1)S(=O)(=O)c1ccc(C(=O)N2CCN(S(C)(=O)=O)CC2)cc1 [Compound 53, N-(4-Fluoro-phenyl)-N-isobutyl-4-(4-methanesulfonyl-piperazine-1-carbonyl)-benzenesulfonamide]  299 nM
23. CC(C)CN(c1cccc(Cl)c1)S(=O)(=O)c1cccc(N2CCN(S(C)(=O)=O)CC2)c1 [Compound 26, N-(3-Chloro-phenyl)-N-isobutyl-3-(4-methanesulfonyl-piperazin-1-yl)-benzenesulfonamide]  414 nM
24. CC(C)CN([C@H](C)c1ccccc1)S(=O)(=O)c1ccc(N2CCN(S(C)(=O)=O)CC2)cc1 [Compound 62, N-Isobutyl-4-(4-methanesulfonyl-piperazin-1-yl)-N-((R)-1-phenyl-ethyl)-benzenesulfonamide]  483 nM
25. CC(C)CN(c1ccccc1Cl)S(=O)(=O)c1cccc(N2CCN(S(C)(=O)=O)CC2)c1 [Compound 25, N-(2-Chloro-phenyl)-N-isobutyl-3-(4-methanesulfonyl-piperazin-1-yl)-benzenesulfonamide]  528 nM
26. CC(=O)N1CCN(c2ccc(S(=O)(=O)N(CC(F)F)c3cccc(Cl)c3)cc2)CC1 [Compound 38, 4-(4-Acetyl-piperazin-1-yl)-N-(3-chloro-phenyl)-N-(2,2-difluoro-ethyl)-benzenesulfonamide]  1400 nM
